Laboratory results reported in publication PMC4367896, “Microbial host selection affects intracellular localization and activity of alcohol-O-acetyltransferase” (Microbial Cell Factories, 2015).

Experiments:
Conditions in all cases: 500 mM ethanol, 0.5 mM acetyl-CoA, pH 7.4, 30 °C
[1] = biological target: T1, Atf1-S.c (Saccharomyces cerevisiae, UniProt P40353)
T1 sequence (P40353 1-525): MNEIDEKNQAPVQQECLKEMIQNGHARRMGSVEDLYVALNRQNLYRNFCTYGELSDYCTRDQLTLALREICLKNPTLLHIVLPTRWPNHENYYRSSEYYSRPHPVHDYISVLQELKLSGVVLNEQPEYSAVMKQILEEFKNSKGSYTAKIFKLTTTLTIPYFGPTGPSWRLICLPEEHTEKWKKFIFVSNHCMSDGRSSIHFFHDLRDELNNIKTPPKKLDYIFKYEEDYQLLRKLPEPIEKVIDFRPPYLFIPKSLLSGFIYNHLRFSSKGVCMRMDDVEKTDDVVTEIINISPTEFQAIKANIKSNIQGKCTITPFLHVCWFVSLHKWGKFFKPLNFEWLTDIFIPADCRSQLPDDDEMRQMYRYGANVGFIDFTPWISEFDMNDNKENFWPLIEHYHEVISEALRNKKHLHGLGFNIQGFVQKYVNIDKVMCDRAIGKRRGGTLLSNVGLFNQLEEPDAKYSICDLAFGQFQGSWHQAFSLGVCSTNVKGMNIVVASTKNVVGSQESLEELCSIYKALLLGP

[2] = biological target: T2, Atf2-S.c (Saccharomyces cerevisiae, UniProt P53296)
T2 sequence (P53296 1-535): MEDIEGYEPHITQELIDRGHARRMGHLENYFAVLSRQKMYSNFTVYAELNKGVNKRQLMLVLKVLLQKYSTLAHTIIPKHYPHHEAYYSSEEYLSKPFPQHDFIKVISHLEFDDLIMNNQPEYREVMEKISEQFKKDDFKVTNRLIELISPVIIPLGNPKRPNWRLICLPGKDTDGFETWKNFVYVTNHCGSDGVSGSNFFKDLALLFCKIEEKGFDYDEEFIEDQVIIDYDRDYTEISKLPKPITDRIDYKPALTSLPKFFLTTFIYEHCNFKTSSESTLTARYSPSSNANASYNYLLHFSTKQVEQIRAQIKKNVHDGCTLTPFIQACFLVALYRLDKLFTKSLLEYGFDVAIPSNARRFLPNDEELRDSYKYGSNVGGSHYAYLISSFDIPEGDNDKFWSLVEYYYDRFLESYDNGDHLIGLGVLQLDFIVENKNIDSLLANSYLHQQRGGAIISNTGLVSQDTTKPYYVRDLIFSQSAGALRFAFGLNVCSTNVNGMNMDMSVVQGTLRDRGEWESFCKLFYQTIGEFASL

[3] = biological target: T3, Atf-S.p (Saccharomyces pastorianus, UniProt Q12678); assay: headspace GC of ethyl acetate, whole cell lysate; format: biochemical
T3 construct: gene ATF1_2; C-terminal GFP fusion (reporter); expressed in S. cerevisiae (pYSPG) and E. coli BL21(DE3) (pSPG)
T3 sequence (Q12678 1-545): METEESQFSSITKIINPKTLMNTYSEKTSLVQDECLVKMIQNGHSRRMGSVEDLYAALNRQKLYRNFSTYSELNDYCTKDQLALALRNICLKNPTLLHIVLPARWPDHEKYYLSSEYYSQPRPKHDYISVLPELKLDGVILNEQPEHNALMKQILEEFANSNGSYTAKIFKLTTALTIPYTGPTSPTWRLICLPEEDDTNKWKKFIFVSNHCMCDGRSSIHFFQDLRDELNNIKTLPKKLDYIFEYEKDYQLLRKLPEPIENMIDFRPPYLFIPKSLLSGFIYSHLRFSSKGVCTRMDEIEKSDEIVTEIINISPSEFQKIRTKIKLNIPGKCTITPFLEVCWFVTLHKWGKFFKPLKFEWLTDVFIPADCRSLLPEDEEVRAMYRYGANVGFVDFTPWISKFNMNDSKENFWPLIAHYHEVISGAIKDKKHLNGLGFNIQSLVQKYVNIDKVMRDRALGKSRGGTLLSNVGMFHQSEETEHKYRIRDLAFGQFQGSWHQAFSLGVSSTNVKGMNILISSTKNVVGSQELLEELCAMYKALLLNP

[4] = biological target: T4, Atf-P.a (Hansenula anomala, UniProt H6UWN0); assay: headspace GC of ethyl acetate, whole cell lysate; format: biochemical
T4 construct: gene WAN_10494; C-terminal GFP fusion (reporter); expressed in S. cerevisiae (pYPAG) and E. coli BL21(DE3) (pPAG)
T4 sequence (H6UWN0 1-427): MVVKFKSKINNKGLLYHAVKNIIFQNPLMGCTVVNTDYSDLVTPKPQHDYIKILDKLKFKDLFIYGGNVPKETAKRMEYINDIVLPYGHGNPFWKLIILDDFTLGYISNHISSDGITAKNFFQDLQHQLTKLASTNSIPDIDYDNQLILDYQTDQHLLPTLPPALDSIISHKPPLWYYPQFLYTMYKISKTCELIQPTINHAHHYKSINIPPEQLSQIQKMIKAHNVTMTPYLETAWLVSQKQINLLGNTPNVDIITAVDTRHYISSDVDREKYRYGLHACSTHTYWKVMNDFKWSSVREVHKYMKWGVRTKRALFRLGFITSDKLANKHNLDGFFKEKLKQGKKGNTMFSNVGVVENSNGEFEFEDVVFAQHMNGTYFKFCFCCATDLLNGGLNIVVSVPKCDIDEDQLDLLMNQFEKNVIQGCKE

[5] = biological target: T5, Atf-S.l (Solanum lycopersicum, UniProt Q6QLX4); assay: headspace GC of ethyl acetate, whole cell lysate; format: biochemical
T5 construct: gene AAT1; C-terminal GFP fusion (reporter); expressed in S. cerevisiae (pYSLG) and E. coli BL21(DE3) (pSLG); N-terminus from primer MANILPI
T5 sequence (Q6QLX4 1-442): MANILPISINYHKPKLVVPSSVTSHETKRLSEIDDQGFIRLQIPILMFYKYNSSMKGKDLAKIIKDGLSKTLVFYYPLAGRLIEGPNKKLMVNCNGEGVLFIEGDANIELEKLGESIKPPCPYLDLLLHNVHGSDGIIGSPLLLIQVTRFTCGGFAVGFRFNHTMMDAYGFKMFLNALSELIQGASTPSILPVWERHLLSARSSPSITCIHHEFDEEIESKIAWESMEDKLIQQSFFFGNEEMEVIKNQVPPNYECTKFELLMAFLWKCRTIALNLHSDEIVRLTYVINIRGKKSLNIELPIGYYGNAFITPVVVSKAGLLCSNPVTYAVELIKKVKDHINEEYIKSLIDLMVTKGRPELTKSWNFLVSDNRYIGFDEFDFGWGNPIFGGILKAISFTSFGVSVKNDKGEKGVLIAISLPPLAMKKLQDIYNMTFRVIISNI

[6] = biological target: T6, Atf-K.l (Kluyveromyces lactis, UniProt Q6CJX7); assay: headspace GC of ethyl acetate, whole cell lysate; format: biochemical
T6 construct: gene KLLA0_F15202g; C-terminal GFP fusion (reporter); expressed in S. cerevisiae (pYKLG) and E. coli BL21(DE3) (pKLG)
T6 sequence (Q6CJX7 1-517): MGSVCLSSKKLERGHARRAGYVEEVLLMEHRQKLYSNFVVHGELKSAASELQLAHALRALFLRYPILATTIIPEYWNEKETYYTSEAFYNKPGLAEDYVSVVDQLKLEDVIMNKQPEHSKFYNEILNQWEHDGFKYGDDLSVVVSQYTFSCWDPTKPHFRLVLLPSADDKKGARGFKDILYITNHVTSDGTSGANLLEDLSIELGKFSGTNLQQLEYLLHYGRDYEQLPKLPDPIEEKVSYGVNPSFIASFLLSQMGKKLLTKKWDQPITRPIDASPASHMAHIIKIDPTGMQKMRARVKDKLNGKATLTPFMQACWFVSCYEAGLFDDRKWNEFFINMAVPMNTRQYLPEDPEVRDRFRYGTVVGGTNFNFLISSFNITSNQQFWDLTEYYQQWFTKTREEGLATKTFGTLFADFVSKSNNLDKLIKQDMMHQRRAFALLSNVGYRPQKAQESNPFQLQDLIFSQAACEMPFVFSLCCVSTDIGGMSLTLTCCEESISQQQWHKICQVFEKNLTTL

**Q.** With `CC(=O)SCCNC(=O)CCNC(=O)[C@H](O)C(C)(C)COP(=O)(O)OP(=O)(O)OC[C@H]1O[C@@H](n2cnc3c(N)ncnc32)[C@H](O)[C@@H]1OP(=O)(O)O` [acetyl-CoA] as the compound, how does the “headspace GC of ethyl acetate, whole cell lysate” value (“headspace GC of ethyl acetate” below) [1] read?
**A.** AATase activity was measured using ethanol and acetyl-CoA as substrates

**Q.** What about the “headspace GC of ethyl acetate” value [2] of the same compound?
**A.** AATase activity was measured using ethanol and acetyl-CoA as substrates

**Q.** And the “headspace GC of ethyl acetate” value [3]?
**A.** AATase activity was measured using ethanol and acetyl-CoA as substrates

**Q.** And the “headspace GC of ethyl acetate” value [4]?
**A.** AATase activity was measured using ethanol and acetyl-CoA as substrates

**Q.** What about the “headspace GC of ethyl acetate” value [5] of the same compound?
**A.** AATase activity was measured using ethanol and acetyl-CoA as substrates

**Q.** What about the “headspace GC of ethyl acetate” value [6] of the same compound?
**A.** AATase activity was measured using ethanol and acetyl-CoA as substrates
